8 molecules from ChEMBL document CHEMBL1201862, “PubChem BioAssay data set” (2004) can be followed below.

Structures are written as SMILES.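 Cultured in 96-well plates, cells were exposed to test compound for 48 hours across five concentrations. GI50 is the concentration that inhibits growth by half.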 Calls of active or inactive are those of the source. No stated cut-off is given here; in the data, active = GI50 up to about 1.1 µM and inactive = higher. Bounds are passed on as bounds.

Common to all, as to assay: inhibition of tumour cell growth, NCI panel, 48 h
Assay [1] concerns CAKI-1.
Assay [2] concerns COLO 205.
For assay [3], the system named is HL-60.
Assay [4] relates to HOP-62.
In assay [5] the test system is K562.
Assay [6] concerns LOX IMVI.
Assay [7] relates to M14.
Assay [8] has as its system MOLT-4.
The test system of assay [9] is Malme-3M.
The test system of assay [10] is NCI-H460.
For assay [11], the system named is NCI-H522.
Assay [12] relates to RXF 393.
Assay [13] deals with SF-539.
Assay [14] relates to SK-MEL-28.
Assay [15] deals with SN12C.
The test system of assay [16] is SNB-75.
Assay [17] relates to TK-10.
The test system of assay [18] is U-251.
Assay [19] has as its system UO-31.

Take `c1ccc2c(c1)cc(C1NCCc3nc[nH]c31)c1ccccc12` (stereo unspecified): the GI50 in assay [1] is 48.8 µM (inactive); in assay [2], 13.5 µM (inactive); in assay [3], 41.6 µM (inactive); in [4] it was 32.4 µM (inactive); in [5] it was 15.2 µM (inactive); in [6], 19.8 µM (inactive). The GI50 in assay [7] was 18.5 µM (inactive); in assay [8], 21 µM (inactive); in assay [9] it was 30.6 µM (inactive); in assay [10] it was 22.6 µM (inactive); in assay [11], 27.7 µM (inactive); in assay [12], 31.7 µM (inactive). In addition, the GI50 in [13] was > 45.2 µM (inactive); in assay [14], > 47.6 µM (inactive); in assay [15], 56 µM (inactive); in assay [16] it was 32.7 µM (inactive); in [17], > 100 µM (inactive); in assay [18], 39.1 µM (inactive). In addition, the GI50 in [19] is 33.7 µM (inactive).

For `CC(C)(C)NNC(=O)CCn1[nH]c(=O)c(Cl)c(Cl)c1=O`, the GI50 in assay [1], in assay [2], in assay [3], in [4], in [5] and in assay [6] was > 100 µM (inactive) in each case. Also, the GI50 in assay [7], in assay [8], in assay [9], in [10], in assay [11] and in assay [12] was > 100 µM (inactive) throughout. Also, the GI50 in assay [13], in assay [14], in assay [15], in [16], in assay [17] and in [18] was > 100 µM (inactive) each time. Also, the GI50 in assay [19] was > 100 µM (inactive).

Take `Cc1ccc(S(=O)(=O)c2ccccn2)cc1`: the GI50 in assay [1], in [2], in assay [3], in assay [4], in [5] and in assay [6] was > 100 µM (inactive) each time. The GI50 in assay [7], in assay [8], in assay [9], in assay [10], in assay [11] and in assay [12] was > 100 µM (inactive) in each case. Besides, the GI50 is > 100 µM (inactive) in [13]; > 100 µM (inactive) in assay [14]; > 100 µM (inactive) in assay [15]; 90.8 µM (inactive) in assay [16]; > 100 µM (inactive) in [17]; > 100 µM (inactive) in [18]. Further, the GI50 in assay [19] is > 100 µM (inactive).

On to `CC(=O)N(C)OC(=O)CC(=O)c1ccccc1`, for which the GI50 in [1], in assay [2], in assay [3], in assay [4], in [5] and in [6] was > 100 µM (inactive) throughout. Also, the GI50 in assay [7], in [8], in assay [9], in assay [10], in assay [11] and in [12] was > 100 µM (inactive) each time. The GI50 in assay [13] was > 100 µM (inactive); in assay [14], > 100 µM (inactive); in assay [15], > 100 µM (inactive); in assay [16], 76.9 µM (inactive); in assay [17], > 100 µM (inactive); in assay [18], > 100 µM (inactive). Besides, the GI50 in assay [19] is > 100 µM (inactive).

Regarding `CC(=O)OC1(C#N)CC2OC1C1N=NN(C(=O)OC(C)(C)C)C21` (stereo unspecified), the GI50 was > 31.6 µM (inactive) in assay [1]; > 100 µM (inactive) in assay [2]; 20.6 µM (inactive) in [3]; > 100 µM (inactive) in assay [4]; 29.9 µM (inactive) in assay [5]; 17.2 µM (inactive) in assay [6]. The GI50 in assay [7] was 21.7 µM (inactive); in assay [8], 34 µM (inactive); in [9] it was 34.7 µM (inactive); in assay [10], > 100 µM (inactive); in assay [11], > 100 µM (inactive); in assay [12], > 31.6 µM (inactive). For the same molecule, the GI50 is 9.75 µM (inactive) in assay [13]; 16.9 µM (inactive) in [14]; 39.7 µM (inactive) in [15]; 70.1 µM (inactive) in [16]; > 100 µM (inactive) in assay [17]; > 100 µM (inactive) in [18]. In assay [19], the GI50 was > 100 µM (inactive).

For the molecule `COC(=O)N/N=C(\C)C(CN(C)C)C(c1ccccc1)c1c(O)c2ccccc2oc1=O` (stereo unspecified), the GI50 in assay [1], in assay [2], in [3], in assay [4], in assay [5] and in [6] was > 100 µM (inactive) in each case. The GI50 is > 100 µM (inactive) in [7]; > 100 µM (inactive) in assay [8]; > 100 µM (inactive) in [9]; 14.2 µM (inactive) in [11]; > 100 µM (inactive) in [12]; > 100 µM (inactive) in [13]. Further, the GI50 in [14], in [15], in assay [16], in assay [17], in [18] and in assay [19] was > 100 µM (inactive) each time.

On to `CN(C(=O)/C=C/c1ccccc1)C1C2CN3CCC(O2)C13` (stereo unspecified), for which the GI50 in [1], in assay [2], in assay [3], in assay [4], in assay [5] and in [6] was > 100 µM (inactive) in each case. Also, the GI50 in assay [7], in assay [8], in [9], in assay [10], in [11] and in assay [12] was > 100 µM (inactive) each time. Moreover, the GI50 in assay [13], in assay [14], in [15], in assay [16], in [17] and in assay [18] was > 100 µM (inactive) each time. For the same molecule, the GI50 in [19] is > 100 µM (inactive).

For the molecule `COc1cc2c(c(OC)c1OC)-c1ccc(SC)c(=O)cc1[C@@H](NC(=O)c1ccc(OC(C)=O)cc1)CC2`, the GI50 is 33.9 µM (inactive) in [1]; 0.0194 µM (active) in assay [2]; 0.0338 µM (active) in [3]; 0.0419 µM (active) in assay [4]; 0.0301 µM (active) in assay [5]; 0.0137 µM (active) in [6]. Moreover, the GI50 in assay [7] was 0.0215 µM (active); in assay [8] it was 0.0409 µM (active); in [9], 0.0238 µM (active); in assay [10] it was 0.0326 µM (active); in [11], 0.01 µM (active); in assay [12] it was 0.018 µM (active). Besides, the GI50 is 0.0169 µM (active) in assay [13]; 0.0553 µM (active) in [14]; 0.0324 µM (active) in [15]; 0.0332 µM (active) in assay [16]; 0.0454 µM (active) in assay [17]; 0.0227 µM (active) in [18]. Besides, the GI50 in assay [19] was 0.433 µM (active).
